Data reported in patent US7595173B2, “Low-cost production of peptides” (Dow Global Technologies Inc., priority 2002, dated 2009).
“Also recorded” adds a separate entry of the source. Ends that are not written are not given here.

Test system: E. coli strain BL21 (DE3)
Assay: Antimicrobial activity: dose-dependent inhibition of E. coli growth (standard growth inhibition assay)
Format: cell-based
Description: The antimicrobial activity of the cleaved peptides (same samples from Examples 5 and 6) was determined by measuring the dose-dependent inhibition of E. coli growth. The samples were tested for their ability to inhibit the growth of an overnight culture inoculated with E. coli strain BL21 (DE3). AMP samples were diluted serially into water in 96 well plates. Overnight cultures of E. coli BL21 (DE3) cells were diluted 1:50 into LB broth and 250 μl aliquots were transferred into 96-well plates. Each plate was incubated at 37° C. for one hour and then 50 μl of diluted peptide (or water) were added to each well. Each plate was incubated overnight at 37° C. and then the culture density was determined by measuring the apparent absorbance at 600 nm using a Spectromax Plus plate reader.

In the case of “PFAKKFAKKFKKFAKKFAKFAFAFGD [D2A21 with an additional proline on the N-terminus and a glycine-aspartate dipeptide on its C-terminus]”, the “antimicrobial activity as compared to the D2A21 core/parent peptide” value is reported as “equivalent antimicrobial activity; also recorded: did not adversely affect the activity”.
